Test results taken from US9192675B2, “Dry powder inhaler and system for drug delivery” (MannKind Corporation, priority 2008, dated 2015).

Assay: Solubility of FDKP as a function of pH
Type: physicochemical
From the text: These properties allow FDKP to crystallize under acidic conditions and the crystals self-assemble to form particles. The particles dissolve readily under physiological conditions where the pH is neutral. As noted, microparticles having a diameter of between about 0.5 and about 10 microns can reach the lungs, successfully passing most of the natural barriers. Particles in this size range can be readily prepared from FDKP.

Question: Which results are given for `O=C(O)/C=C/C(=O)NCCCCC1NC(=O)C(CCCCNC(=O)/C=C/C(=O)O)NC1=O` (centres unmarked) [FDKP, bis-3,6-(N-fumaryl-4-aminobutyl)-2,5-diketopiperazine]?
Answer: solubility (in acid): low solubility in acid; solubility (neutral or basic pH): readily soluble at neutral or basic pH
